{"source": "PubChem BioAssay AID2060882", "about": "(Molecular Pharmacology Branch, DTP, NCI, 2025)", "tested_on": "898857-211-R-J1-PDC complex spheroids, growth % test/control", "test": "Anticancer human tumor 898857-211-R-J1-PDC patient-derived melanoma cell line growth inhibition [RAS]", "conditions": "for IC50: curve of first compound; for viability, T/C: stronger effect = lower value", "in_short": "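Agents were tested in combination matrices in half-log decrements from a top concentration at or near clinical Cmax (10 microM if undetermined). Targets were multi-cell spheroids of tumour lines plus HUVEC and MSC stromal cells.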"}
{"compound": "C=CC(=O)Nc1cc(Nc2nccc(-c3cn(C)c4ccccc34)n2)c(OC)cc1N(C)CCN(C)C", "note": "+ CCn1c(-c2cccnc2C(C)OC)c2c3cc(ccc31)N1CCOC(CC(NC(=O)C(C(C)C)N(C)C(=O)C3(F)CCN(C(=O)C#CC(C)(C)N(C)C)CC3)C(=O)N3CCCC(N3)C(=O)OCC(C)(C)C2)C1;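 further: spheroids exposed to compound for seven days before readout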;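 on viability, T/C: 100% = DMSO vehicle control wells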", "values": [{"measurement": "IC50", "setting": "second compound 0.000949 µM", "value": "> 1000", "unit": "nM"}, {"measurement": "IC50", "setting": "second compound 0.003 µM", "value": 942, "unit": "nM"}, {"measurement": "IC50", "setting": "second compound 0.00949 µM", "value": "> 1000", "unit": "nM"}, {"measurement": "IC50", "setting": "second compound 0.03 µM", "value": "> 1000", "unit": "nM"}, {"measurement": "IC50", "setting": "second compound 0.0949 µM", "value": "> 1000", "unit": "nM"}, {"measurement": "IC50", "setting": "second compound 0.3 µM", "value": 848, "unit": "nM"}, {"measurement": "viability, T/C", "setting": "second compound 0.000949 µM, first compound 0.00316 µM", "value": 104, "unit": "%"}, {"measurement": "viability, T/C", "setting": "second compound 0.000949 µM, first compound 0.01 µM", "value": 103, "unit": "%"}, {"measurement": "viability, T/C", "setting": "second compound 0.000949 µM, first compound 0.0316 µM", "value": 107, "unit": "%"}, {"measurement": "viability, T/C", "setting": "second compound 0.000949 µM, first compound 0.1 µM", "value": 84.9, "unit": "%"}, {"measurement": "viability, T/C", "setting": "second compound 0.000949 µM, first compound 0.316 µM", "value": 95.9, "unit": "%"}, {"measurement": "viability, T/C", "setting": "second compound 0.000949 µM, first compound 1 µM", "value": 56.3, "unit": "%"}, {"measurement": "viability, T/C", "setting": "second compound 0.003 µM, first compound 0.00316 µM", "value": 99.3, "unit": "%"}, {"measurement": "viability, T/C", "setting": "second compound 0.003 µM, first compound 0.01 µM", "value": 99.9, "unit": "%"}, {"measurement": "viability, T/C", "setting": "second compound 0.003 µM, first compound 0.0316 µM", "value": 108, "unit": "%"}, {"measurement": "viability, T/C", "setting": "second compound 0.003 µM, first compound 0.1 µM", "value": 95.4, "unit": "%"}, {"measurement": "viability, T/C", "setting": "second compound 0.003 µM, first compound 0.316 µM", "value": 94.1, "unit": "%"}, {"measurement": "viability, T/C", "setting": "second compound 0.003 µM, first compound 1 µM", "value": 47.1, "unit": "%"}, {"measurement": "viability, T/C", "setting": "second compound 0.00949 µM, first compound 0.00316 µM", "value": 95.8, "unit": "%"}, {"measurement": "viability, T/C", "setting": "second compound 0.00949 µM, first compound 0.01 µM", "value": 97.8, "unit": "%"}, {"measurement": "viability, T/C", "setting": "second compound 0.00949 µM, first compound 0.0316 µM", "value": 102, "unit": "%"}, {"measurement": "viability, T/C", "setting": "second compound 0.00949 µM, first compound 0.1 µM", "value": 94.8, "unit": "%"}, {"measurement": "viability, T/C", "setting": "second compound 0.00949 µM, first compound 0.316 µM", "value": 91.4, "unit": "%"}, {"measurement": "viability, T/C", "setting": "second compound 0.00949 µM, first compound 1 µM", "value": 59.9, "unit": "%"}, {"measurement": "viability, T/C", "setting": "second compound 0.03 µM, first compound 0.00316 µM", "value": 107, "unit": "%"}, {"measurement": "viability, T/C", "setting": "second compound 0.03 µM, first compound 0.01 µM", "value": 105, "unit": "%"}, {"measurement": "viability, T/C", "setting": "second compound 0.03 µM, first compound 0.0316 µM", "value": 106, "unit": "%"}, {"measurement": "viability, T/C", "setting": "second compound 0.03 µM, first compound 0.1 µM", "value": 110, "unit": "%"}, {"measurement": "viability, T/C", "setting": "second compound 0.03 µM, first compound 0.316 µM", "value": 90.2, "unit": "%"}, {"measurement": "viability, T/C", "setting": "second compound 0.03 µM, first compound 1 µM", "value": 58.3, "unit": "%"}, {"measurement": "viability, T/C", "setting": "second compound 0.0949 µM, first compound 0.00316 µM", "value": 105, "unit": "%"}, {"measurement": "viability, T/C", "setting": "second compound 0.0949 µM, first compound 0.01 µM", "value": 98.2, "unit": "%"}, {"measurement": "viability, T/C", "setting": "second compound 0.0949 µM, first compound 0.0316 µM", "value": 92.3, "unit": "%"}, {"measurement": "viability, T/C", "setting": "second compound 0.0949 µM, first compound 0.1 µM", "value": 96.6, "unit": "%"}, {"measurement": "viability, T/C", "setting": "second compound 0.0949 µM, first compound 0.316 µM", "value": 92.2, "unit": "%"}, {"measurement": "viability, T/C", "setting": "second compound 0.0949 µM, first compound 1 µM", "value": 57, "unit": "%"}, {"measurement": "viability, T/C", "setting": "second compound 0.3 µM, first compound 0.00316 µM", "value": 84.8, "unit": "%"}, {"measurement": "viability, T/C", "setting": "second compound 0.3 µM, first compound 0.01 µM", "value": 67.8, "unit": "%"}, {"measurement": "viability, T/C", "setting": "second compound 0.3 µM, first compound 0.0316 µM", "value": 77.7, "unit": "%"}, {"measurement": "viability, T/C", "setting": "second compound 0.3 µM, first compound 0.1 µM", "value": 76.1, "unit": "%"}, {"measurement": "viability, T/C", "setting": "second compound 0.3 µM, first compound 0.316 µM", "value": 71.4, "unit": "%"}, {"measurement": "viability, T/C", "setting": "second compound 0.3 µM, first compound 1 µM", "value": 46.4, "unit": "%"}]}
{"compound": "CC(Nc1ccc2c(c1)OCCn1cc(N3C(=O)OCC3C(F)F)nc1-2)C(N)=O", "note": "(centres undefined) + C=CC(=O)N1CCN(c2nc(OCC3CCCN3C)nc3c(F)c(-c4nc(N)cc(C)c4C(F)(F)F)c(Cl)cc23)C(C)C1", "values": [{"measurement": "IC50", "setting": "second compound 0.00316 µM", "value": "> 10000", "unit": "nM"}, {"measurement": "IC50", "setting": "second compound 0.01 µM", "value": "> 10000", "unit": "nM"}, {"measurement": "IC50", "setting": "second compound 0.0316 µM", "value": "> 10000", "unit": "nM"}, {"measurement": "IC50", "setting": "second compound 0.1 µM", "value": "> 10000", "unit": "nM"}, {"measurement": "IC50", "setting": "second compound 0.316 µM", "value": "> 10000", "unit": "nM"}, {"measurement": "IC50", "setting": "second compound 1 µM", "value": "> 10000", "unit": "nM"}, {"measurement": "viability, T/C", "setting": "second compound 0.00316 µM, first compound 0.0316 µM", "value": 106, "unit": "%"}, {"measurement": "viability, T/C", "setting": "second compound 0.00316 µM, first compound 0.1 µM", "value": 91.2, "unit": "%"}, {"measurement": "viability, T/C", "setting": "second compound 0.00316 µM, first compound 0.316 µM", "value": 98.7, "unit": "%"}, {"measurement": "viability, T/C", "setting": "second compound 0.00316 µM, first compound 1 µM", "value": 93.9, "unit": "%"}, {"measurement": "viability, T/C", "setting": "second compound 0.00316 µM, first compound 3.16 µM", "value": 94.8, "unit": "%"}, {"measurement": "viability, T/C", "setting": "second compound 0.00316 µM, first compound 10 µM", "value": 72.8, "unit": "%"}, {"measurement": "viability, T/C", "setting": "second compound 0.01 µM, first compound 0.0316 µM", "value": 94.7, "unit": "%"}, {"measurement": "viability, T/C", "setting": "second compound 0.01 µM, first compound 0.1 µM", "value": 103, "unit": "%"}, {"measurement": "viability, T/C", "setting": "second compound 0.01 µM, first compound 0.316 µM", "value": 93.9, "unit": "%"}, {"measurement": "viability, T/C", "setting": "second compound 0.01 µM, first compound 1 µM", "value": 87.6, "unit": "%"}, {"measurement": "viability, T/C", "setting": "second compound 0.01 µM, first compound 3.16 µM", "value": 95.6, "unit": "%"}, {"measurement": "viability, T/C", "setting": "second compound 0.01 µM, first compound 10 µM", "value": 71.4, "unit": "%"}, {"measurement": "viability, T/C", "setting": "second compound 0.0316 µM, first compound 0.0316 µM", "value": 108, "unit": "%"}, {"measurement": "viability, T/C", "setting": "second compound 0.0316 µM, first compound 0.1 µM", "value": 103, "unit": "%"}, {"measurement": "viability, T/C", "setting": "second compound 0.0316 µM, first compound 0.316 µM", "value": 98.7, "unit": "%"}, {"measurement": "viability, T/C", "setting": "second compound 0.0316 µM, first compound 1 µM", "value": 91.9, "unit": "%"}, {"measurement": "viability, T/C", "setting": "second compound 0.0316 µM, first compound 3.16 µM", "value": 81.8, "unit": "%"}, {"measurement": "viability, T/C", "setting": "second compound 0.0316 µM, first compound 10 µM", "value": 75.7, "unit": "%"}, {"measurement": "viability, T/C", "setting": "second compound 0.1 µM, first compound 0.0316 µM", "value": 99.8, "unit": "%"}, {"measurement": "viability, T/C", "setting": "second compound 0.1 µM, first compound 0.1 µM", "value": 105, "unit": "%"}, {"measurement": "viability, T/C", "setting": "second compound 0.1 µM, first compound 0.316 µM", "value": 107, "unit": "%"}, {"measurement": "viability, T/C", "setting": "second compound 0.1 µM, first compound 1 µM", "value": 99.1, "unit": "%"}, {"measurement": "viability, T/C", "setting": "second compound 0.1 µM, first compound 3.16 µM", "value": 87.9, "unit": "%"}, {"measurement": "viability, T/C", "setting": "second compound 0.1 µM, first compound 10 µM", "value": 74.5, "unit": "%"}, {"measurement": "viability, T/C", "setting": "second compound 0.316 µM, first compound 0.0316 µM", "value": 118, "unit": "%"}, {"measurement": "viability, T/C", "setting": "second compound 0.316 µM, first compound 0.1 µM", "value": 120, "unit": "%"}, {"measurement": "viability, T/C", "setting": "second compound 0.316 µM, first compound 0.316 µM", "value": 108, "unit": "%"}, {"measurement": "viability, T/C", "setting": "second compound 0.316 µM, first compound 1 µM", "value": 97, "unit": "%"}, {"measurement": "viability, T/C", "setting": "second compound 0.316 µM, first compound 3.16 µM", "value": 94.4, "unit": "%"}, {"measurement": "viability, T/C", "setting": "second compound 0.316 µM, first compound 10 µM", "value": 70.1, "unit": "%"}, {"measurement": "viability, T/C", "setting": "second compound 1 µM, first compound 0.0316 µM", "value": 113, "unit": "%"}, {"measurement": "viability, T/C", "setting": "second compound 1 µM, first compound 0.1 µM", "value": 124, "unit": "%"}, {"measurement": "viability, T/C", "setting": "second compound 1 µM, first compound 0.316 µM", "value": 102, "unit": "%"}, {"measurement": "viability, T/C", "setting": "second compound 1 µM, first compound 1 µM", "value": 111, "unit": "%"}, {"measurement": "viability, T/C", "setting": "second compound 1 µM, first compound 3.16 µM", "value": 90.1, "unit": "%"}, {"measurement": "viability, T/C", "setting": "second compound 1 µM, first compound 10 µM", "value": 71.4, "unit": "%"}]}
